Assay results reported in the supplement of paper PMC13380429.

Assays:
Conditions in all cases: 72 h
Caco-2 [1] = assay: cell viability relative to DMSO; higher = less toxic
Calu-3 [2] = assay: as above
HepG2 [3] = assay: as above
U2OS [4] = assay: as above
Vero E6 [5] = assay: as above
Caco-2 [6] = assay: relative viability EC50 (midpoint between 100% and the lowest measured viability); higher = less toxic
Calu-3 [7] = assay: as above
HepG2 [8] = assay: as above
U2OS [9] = assay: as above
Vero E6 [10] = assay: as above
Caco-2 [11] = assay: drug sensitivity score (DSS) for viability; higher = more toxic; extreme values may be limits of the assay
Calu-3 [12] = assay: as above
HepG2 [13] = assay: as above
U2OS [14] = assay: as above
Vero E6 [15] = assay: as above

Row | SMILES | cell viability (Caco-2 [1]; 1 nM) | cell viability (Caco-2 [1]; 10 nM) | cell viability (Caco-2 [1]; 100 nM) | cell viability (Caco-2 [1]; 1000 nM) | cell viability (Caco-2 [1]; 10000 nM) | cell viability (Calu-3 [2]; 1 nM) | cell viability (Calu-3 [2]; 10 nM) | cell viability (Calu-3 [2]; 100 nM) | cell viability (Calu-3 [2]; 1000 nM) | cell viability (Calu-3 [2]; 10000 nM) | cell viability (HepG2 [3]; 1 nM) | cell viability (HepG2 [3]; 10 nM) | cell viability (HepG2 [3]; 100 nM) | cell viability (HepG2 [3]; 1000 nM) | cell viability (HepG2 [3]; 10000 nM) | cell viability (U2OS [4]; 1 nM) | cell viability (U2OS [4]; 10 nM) | cell viability (U2OS [4]; 100 nM) | cell viability (U2OS [4]; 1000 nM) | cell viability (U2OS [4]; 10000 nM) | cell viability (Vero E6 [5]; 1 nM) | cell viability (Vero E6 [5]; 10 nM) | cell viability (Vero E6 [5]; 100 nM) | cell viability (Vero E6 [5]; 1000 nM) | cell viability (Vero E6 [5]; 10000 nM) | relative viability EC50 (Caco-2 [6]) | relative viability EC50 (Calu-3 [7]) | relative viability EC50 (HepG2 [8]) | relative viability EC50 (U2OS [9]) | relative viability EC50 (Vero E6 [10]) | drug sensitivity score (Caco-2 [11]) | drug sensitivity score (Calu-3 [12]) | drug sensitivity score (HepG2 [13]) | drug sensitivity score (U2OS [14]) | drug sensitivity score (Vero E6 [15])
1 | NC(CO)C(=O)NNCc1ccc(O)c(O)c1O (stereo not given) [benserazide] | 95.7% | 99% | 81.6% | 97.8% | 87.9% | 88.9% | 89.8% | 95.7% | 96.2% | 92.2% | 80.5% | 97.4% | 104% | 85% | 94.5% | 96.8% | 101% | 93% | 99.8% | 94% | 115% | 99.8% | 106% | 97% | 106% | > 10 µM | > 10 µM | > 10 µM | > 10 µM | > 10 µM | 0 | 0 | 0 | 0 | 0
2 | Cl/C(=C\n1cncn1)c1ccc(Cl)cc1Cl [loreclezole] | 91.1% | 92.8% | 94.6% | 95% | 104% | 100% | 94.7% | 105% | 113% | 97.6% | 96.5% | 98.9% | 104% | 90% | 87.7% | 95.9% | 100% | 96% | 99.7% | 108% | 101% | 102% | 98.8% | 101% | 96.2% | > 10 µM | > 10 µM | > 10 µM | > 10 µM | > 10 µM | 0 | 0 | 0.5 | 0 | 0
3 | NCCCC[C@H](N)C(=O)O [L-lysine] | 110% | 102% | 96.8% | 86% | 106% | 92.7% | 102% | 106% | 97.7% | 105% | 111% | 102% | 103% | 93.2% | 114% | 103% | 96.7% | 101% | 97.5% | 99.5% | 108% | 106% | 99.6% | 98.8% | 104% | > 10 µM | > 10 µM | > 10 µM | > 10 µM | > 10 µM | 0 | 0 | 0 | 0 | 0
4 | COc1cc2c3cc1Oc1cc(ccc1O)C[C@@H]1c4c(cc(OC)c(O)c4Oc4ccc(cc4)C[C@@H]3N(C)CC2)CC[N+]1(C)C [tubocurarine] | 93.5% | 115% | 102% | 108% | 111% | 107% | 102% | 103% | 102% | 91.3% | 99.5% | 94.5% | 94.6% | 94.6% | 97.6% | 93.5% | 97.2% | 98.4% | 99.9% | 106% | 108% | 88.9% | 107% | 98.4% | 118% | > 10 µM | > 10 µM | > 10 µM | > 10 µM | > 10 µM | 0 | 0 | 0 | 0 | 0
5 | C/C(=N\c1ccccc1N)c1c(C)cc(=O)n(O)c1O [SUN-B-8155] | 102% | 105% | 99.4% | 103% | 96.2% | 110% | 115% | 91.8% | 104% | 110% | 101% | 104% | 102% | 99.7% | 77.3% | 97.3% | 104% | 98.9% | 99.7% | 96.3% | 101% | 104% | 101% | 98.6% | 104% | > 10 µM | > 10 µM | > 10 µM | > 10 µM | > 10 µM | 0 | 0 | 0.8 | 0 | 0
6 | CC(=O)N(O)C/C=C/c1cccc(Oc2ccccc2)c1 [BW-A4C] | 92.5% | 103% | 115% | 92.9% | 102% | 89.6% | 105% | 97.8% | 114% | 112% | 95.6% | 99.4% | 104% | 84.5% | 92.9% | 95.4% | 95.5% | 94.6% | 98.6% | 81.8% | 107% | 86.1% | 109% | 95.2% | 102% | > 10 µM | > 10 µM | > 10 µM | > 10 µM | > 10 µM | 0 | 0 | 1.4 | 0.6 | 0
7 | C[C@]12C=CC(=O)C=C1CC[C@@H]1[C@@H]2[C@@H](O)C[C@@]2(C)[C@H]1CC[C@]2(O)C(=O)COP(=O)(O)O [prednisolone-sodium-phosphate] | 99.6% | 89.5% | 98.4% | 92.8% | 91.7% | 97.4% | 92.7% | 101% | 82.5% | 106% | 100% | 100% | 104% | 99.2% | 100% | 95.1% | 105% | 97.9% | 90.8% | 97% | 102% | 103% | 108% | 101% | 89.6% | > 10 µM | > 10 µM | > 10 µM | > 10 µM | > 10 µM | 0 | 0 | 0 | 0 | 0
8 | CC1(CN)Cc2ccccc2C1 [ORG-9768] | 93% | 87.1% | 101% | 93.9% | 110% | 109% | 105% | 95.4% | 102% | 96.9% | 98% | 109% | 96.3% | 112% | 102% | 99.5% | 98% | 101% | 102% | 102% | 91.2% | 96.8% | 94% | 98.5% | 109% | > 10 µM | > 10 µM | > 10 µM | > 10 µM | > 10 µM | 0 | 0 | 0 | 0 | 0
9 | CCn1cc(C(=O)O)c(=O)c2cc3c(cc21)OCO3 [oxolinic-acid] | 109% | 98.9% | 85.3% | 102% | 78.4% | 89.1% | 99.9% | 94.2% | 106% | 93.2% | 97% | 108% | 113% | 108% | 94.1% | 101% | 101% | 96.2% | 103% | 97% | 98.5% | 109% | 109% | 93.6% | 95% | > 10 µM | > 10 µM | > 10 µM | > 10 µM | > 10 µM | 0.6 | 0 | 0 | 0 | 0
10 | C1COC(NC(C2CC2)C2CC2)=N1 [rilmenidine] | 103% | 100% | 103% | 93.4% | 104% | 98.6% | 82.1% | 109% | 95.8% | 105% | 99.3% | 110% | 97.2% | 100% | 103% | 104% | 97% | 108% | 98.2% | 104% | 95.9% | 99.1% | 95.3% | 101% | 97.4% | > 10 µM | > 10 µM | > 10 µM | > 10 µM | > 10 µM | 0 | 0 | 0 | 0 | 0
11 | CC(C)=CCC[C@](C)(O[C@@H]1O[C@H](CO)[C@@H](O)[C@H](O)[C@H]1O)[C@H]1CC[C@]2(C)[C@@H]1[C@H](O)C[C@@H]1[C@@]3(C)CC[C@H](O)C(C)(C)[C@@H]3CC[C@]12C [ginsenoside-C-K] | 91.7% | 104% | 94.5% | 96.2% | 102% | 89.3% | 97.3% | 98.9% | 101% | 99.4% | 108% | 111% | 106% | 92.7% | 85.9% | 99.4% | 94.7% | 99.7% | 97.5% | 99.3% | 109% | 99.7% | 103% | 98.4% | 98.1% | > 10 µM | > 10 µM | > 10 µM | > 10 µM | > 10 µM | 0 | 0 | 0.7 | 0 | 0
12 | CC(C)N(CCC(C(N)=O)(c1ccccc1)c1ccccn1)C(C)C (stereo not given) [disopyramide] | 94.4% | 104% | 101% | 102% | 91.8% | 101% | 93.2% | 96.3% | 96.9% | 89.7% | 105% | 86.8% | 94.7% | 91.9% | 99.4% | 103% | 102% | 100% | 99.7% | 95.7% | 102% | 101% | 96% | 97.7% | 97.5% | > 10 µM | > 10 µM | > 10 µM | > 10 µM | > 10 µM | 0 | 0 | 0 | 0 | 0
